Test results: patent US20230114728A1 (Venatorx Pharmaceuticals, Inc., priority 2019, published 2023)
Converted amounts (≈) assume the structure as drawn.

Key:
Assay in all cases: Broth microdilution MIC in iron-depleted CAMHB (IDM)
Assay type in all cases: cell-based
A. baumannii ATCC 17978 = settings: Acinetobacter baumannii, ATCC17978, read-out: Minimum Inhibitory Concentration, ATCC 17978
Summary of the method: (§1)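 IDM = CAMHB stripped with Chelex 100 resin 2 h, supplemented CaCl2 82.5 mg/L, MgCl2 94.1 mg/L, ZnSO4 10 μM, pH 7.3. 2-fold compound dilutions; 2-8×10^5 CFU/mL; 37° C; Acinetobacter 20-24 h, Pseudomonas 16-20 h. Visual MIC.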

[1] = tested on: A. baumannii CDC-0033 producing NDM-1, and OXA-94; settings: Acinetobacter baumannii, read-out: Minimum Inhibitory Concentration, CDC-0033
Summary of the method: as §1

[2] = tested on: A. baumannii CDC-0036 OXA-65, and OXA-24; settings: Acinetobacter baumannii, read-out: Minimum Inhibitory Concentration, CDC-0036
Summary of the method: as §1

[3] = tested on: P. aeruginosa (ΔmexAB-oprM); settings: Pseudomonas aeruginosa, read-out: Minimum Inhibitory Concentration, P. aeruginosa ΔmexAB-OprM
Summary of the method: as §1

P. aeruginosa ATCC 27853 = settings: Pseudomonas aeruginosa, ATCC27853, read-out: Minimum Inhibitory Concentration, P. aeruginosa ATCC 27853
Summary of the method: as §1

P. aeruginosa ATCC 35151 = settings: Pseudomonas aeruginosa, ATCC35151; iron-depleted MHB (IDM); hyper-permeable strain; read-out: Minimum Inhibitory Concentration, P. aeruginosa ATCC 35151
Summary of the method: as §1

[4] = tested on: P. aeruginosa CDC-0054 producing VIM-4, OXA-50, and PAO; settings: Pseudomonas aeruginosa, read-out: Minimum Inhibitory Concentration, P. aeruginosa CDC-0054
Summary of the method: as §1

[5] = tested on: P. aeruginosa CDC-0090 producing KPC-5, OXA-50, and PAO; settings: Pseudomonas aeruginosa, read-out: Minimum Inhibitory Concentration, P. aeruginosa CDC-0090
Summary of the method: as §1

[6] = tested on: P. aeruginosa CDC-0095 producing OXA-50, and PAO; settings: Pseudomonas aeruginosa, read-out: Minimum Inhibitory Concentration, P. aeruginosa CDC-0095
Summary of the method: as §1

P. aeruginosa CDC-0110 = settings: Pseudomonas aeruginosa, CDC0110, read-out: Minimum Inhibitory Concentration, P. aeruginosa CDC-0110
Summary of the method: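 CLSI broth microdilution in iron-depleted cation-adjusted Mueller Hinton broth (Chelex-treated, Ca, Mg, Zn restored, pH 7.3), inoculum 2-8×10^5 CFU/mL, 2-fold compound dilutions. Pseudomonas plates incubated 16-20 h at 37 °C; MIC read visually as lowest concentration without growth.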

Row | SMILES | MIC (A. baumannii ATCC 17978) [µg/mL] | MIC [1] [µg/mL] | MIC [2] [µg/mL] | MIC [3] [µg/mL] | MIC (P. aeruginosa ATCC 27853) [µg/mL] | MIC (P. aeruginosa ATCC 35151) [µg/mL] | MIC [4] [µg/mL] | MIC [5] [µg/mL] | MIC [6] [µg/mL] | MIC (P. aeruginosa CDC-0110) [µg/mL]
1 | O=C(NCCN1CCN(C(=O)NC(C(=O)N[C@H]2Cc3ccc(F)c(C(=O)O)c3OB2O)c2ncc(O)cc2F)C(=O)C1=O)c1c(F)cc(O)c(O)c1Cl (stereo partly drawn) [Example 5, (3R)-3-(2-(4-(2-(2-chloro-6-fluoro-3,4-dihydroxybenzamido)ethyl)-2,3-dioxopiperazine-1-carboxamido)-2-(3-fluoro-5-hydroxypyridin-2-yl)acetamido)-7-fluoro-2-hydroxy-3,4-dihydro-2H-benzo[e][1,2]oxaborinine-8-carboxylic acid] | 0.25 (≈ 0.327 µM) | 2 to 4 (≈ 2.61 to 5.23 µM) | 32 to 64 (≈ 41.8 to 83.7 µM) | 0.25 (≈ 0.327 µM) | 0.25 (≈ 0.327 µM) | 0.25 (≈ 0.327 µM) | 0.25 (≈ 0.327 µM) | 0.25 (≈ 0.327 µM) | 0.5 to 1 (≈ 0.654 to 1.31 µM) | 0.25 (≈ 0.327 µM)
2 | Nc1nc(/C(=N/OC[C@H](NC(=O)c2ccc(O)c(O)c2Cl)C(=O)O)C(=O)N[C@H]2Cc3cccc(C(=O)O)c3OB2O)cs1 [Example 6, (R)-3-((Z)-2-(2-aminothiazol-4-yl)-2-(((S)-2-carboxy-2-(2-chloro-3,4-dihydroxybenzamido)ethoxy)imino)acetamido)-2-hydroxy-3,4-dihydro-2H-benzo[e][1,2]oxaborinine-8-carboxylic acid] | 8 to 16 (≈ 12.6 to 25.2 µM) | 32 to 64 (≈ 50.5 to 101 µM) | 32 to 64 (≈ 50.5 to 101 µM) | 0.5 to 1 (≈ 0.789 to 1.58 µM) | 0.5 to 1 (≈ 0.789 to 1.58 µM) | 0.25 (≈ 0.394 µM) | 0.5 to 1 (≈ 0.789 to 1.58 µM) | 0.5 to 1 (≈ 0.789 to 1.58 µM) | 2 to 4 (≈ 3.16 to 6.31 µM) | 2 to 4 (≈ 3.16 to 6.31 µM)
3 | NCCCN1CCN(C(=O)N[C@@H](C(=O)N[C@H]2Cc3cc(Cl)c(F)c(C(=O)O)c3OB2O)c2c(F)cc(O)c(O)c2Cl)C(=O)C1=O [Example 190, (R)-3-((R)-2-(4-(3-aminopropyl)-2,3-dioxopiperazine-1-carboxamido)-2-(2-chloro-6-fluoro-3,4-dihydroxyphenyl)acetamido)-6-chloro-7-fluoro-2-hydroxy-3,4-dihydro-2H-benzo[e][1,2]oxaborinine-8-carboxylic acid] | 8 to 16 (≈ 11.9 to 23.7 µM) | > 128 | > 128 | 0.25 (≈ 0.371 µM) | 2 to 4 (≈ 2.97 to 5.93 µM) | 0.5 to 1 (≈ 0.742 to 1.48 µM) | 8 to 16 (≈ 11.9 to 23.7 µM) | 0.5 to 1 (≈ 0.742 to 1.48 µM) | 8 to 16 (≈ 11.9 to 23.7 µM) | 2 to 4 (≈ 2.97 to 5.93 µM)
4 | CCN1CCN(C(=O)N[C@@H](C(=O)N[C@H]2Cc3cc(Cl)c(F)c(C(=O)O)c3OB2O)c2c(F)cc(O)c(O)c2Cl)C(=O)C1=O [Example 191, (R)-6-chloro-3-((R)-2-(2-chloro-6-fluoro-3,4-dihydroxyphenyl)-2-(4-ethyl-2,3-dioxopiperazine-1-carboxamido)acetamido)-7-fluoro-2-hydroxy-3,4-dihydro-2H-benzo[e][1,2]oxaborinine-8-carboxylic acid] | 2 to 4 (≈ 3.1 to 6.2 µM) | > 128 | 32 to 64 (≈ 49.6 to 99.2 µM) | 0.25 (≈ 0.387 µM) | 2 to 4 (≈ 3.1 to 6.2 µM) | 0.25 (≈ 0.387 µM) | 2 to 4 (≈ 3.1 to 6.2 µM) | 8 to 16 (≈ 12.4 to 24.8 µM) | 8 to 16 (≈ 12.4 to 24.8 µM) | 2 to 4 (≈ 3.1 to 6.2 µM)
5 | CS(=O)(=O)N1CCN(C(=O)NC(C(=O)N[C@H]2Cc3ccc(F)c(C(=O)O)c3OB2O)c2c(Cl)cc(O)c(O)c2F)C1=O (stereo partly drawn) [Example 208, (3R)-3-(2-(6-chloro-2-fluoro-3,4-dihydroxyphenyl)-2-(3-(methylsulfonyl)-2-oxoimidazolidine-1-carboxamido)acetamido)-7-fluoro-2-hydroxy-3,4-dihydro-2H-benzo[e][1,2]oxaborinine-8-carboxylic acid] | 0.5 to 1 (≈ 0.79 to 1.58 µM) | 32 to 64 (≈ 50.6 to 101 µM) | 8 to 16 (≈ 12.6 to 25.3 µM) | 2 to 4 (≈ 3.16 to 6.32 µM) | 2 to 4 (≈ 3.16 to 6.32 µM) | 0.25 (≈ 0.395 µM) | 32 to 64 (≈ 50.6 to 101 µM) | 2 to 4 (≈ 3.16 to 6.32 µM) | 32 to 64 (≈ 50.6 to 101 µM) | 8 to 16 (≈ 12.6 to 25.3 µM)
6 | NCCN1CCN(C(=O)N[C@@H](C(=O)N[C@H]2Cc3ccc(F)c(C(=O)O)c3OB2O)c2c(F)c(F)c(O)c(O)c2Cl)C(=O)C1=O [Example 226, (R)-3-((R)-2-(4-(2-aminoethyl)-2,3-dioxopiperazine-1-carboxamido)-2-(2-chloro-5,6-difluoro-3,4-dihydroxyphenyl)acetamido)-7-fluoro-2-hydroxy-3,4-dihydro-2H-benzo[e][1,2]oxaborinine-8-carboxylic acid] | 0.5 to 1 (≈ 0.777 to 1.55 µM) | 8 to 16 (≈ 12.4 to 24.9 µM) | 8 to 16 (≈ 12.4 to 24.9 µM) | 2 to 4 (≈ 3.11 to 6.21 µM) | 0.5 to 1 (≈ 0.777 to 1.55 µM) | 0.25 (≈ 0.388 µM) | 2 to 4 (≈ 3.11 to 6.21 µM) |  | 2 to 4 (≈ 3.11 to 6.21 µM) | 0.5 to 1 (≈ 0.777 to 1.55 µM)
